Measured values reported in patent US12479847B2 (DANA-FARBER CANCER INSTITUTE, INC., priority 2019, dated 2025).

Tests used:
Assay in all cases: KINOMEscan (ScanMAX) kinase profiling
Type in all cases: binding
panel of 468 kinases [1] = target: T1, panel of 468 kinases (Homo sapiens, UniProt Q13546); conditions: RIPK1; 1 μM; read-out: % control
T1 construct: purchased KINOMEscan (ScanMAX) service
T1 sequence (Q13546 1-671): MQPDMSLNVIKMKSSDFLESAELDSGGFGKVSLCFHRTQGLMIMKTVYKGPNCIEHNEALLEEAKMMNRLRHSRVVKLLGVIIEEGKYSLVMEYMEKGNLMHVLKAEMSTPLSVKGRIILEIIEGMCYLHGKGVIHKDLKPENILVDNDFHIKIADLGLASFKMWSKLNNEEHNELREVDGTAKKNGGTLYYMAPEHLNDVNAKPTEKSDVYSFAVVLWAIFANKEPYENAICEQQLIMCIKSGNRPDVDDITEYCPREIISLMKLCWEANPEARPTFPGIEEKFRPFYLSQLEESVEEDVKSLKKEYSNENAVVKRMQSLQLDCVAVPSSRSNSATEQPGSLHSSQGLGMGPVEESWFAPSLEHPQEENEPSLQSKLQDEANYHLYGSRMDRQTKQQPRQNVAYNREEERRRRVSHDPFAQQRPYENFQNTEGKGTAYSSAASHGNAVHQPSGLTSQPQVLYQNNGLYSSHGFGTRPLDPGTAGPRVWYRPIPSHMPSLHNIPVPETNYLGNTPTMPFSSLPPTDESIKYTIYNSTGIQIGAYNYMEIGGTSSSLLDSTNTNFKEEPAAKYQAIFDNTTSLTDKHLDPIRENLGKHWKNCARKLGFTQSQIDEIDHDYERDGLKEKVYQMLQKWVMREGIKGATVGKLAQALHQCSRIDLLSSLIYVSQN

panel of 468 kinases [2] = target: T2, panel of 468 kinases (Homo sapiens, UniProt Q9NRM7); conditions: LATS2; 1 μM; read-out: % control
T2 construct: purchased KINOMEscan (ScanMAX) service
T2 sequence (Q9NRM7 1-1088): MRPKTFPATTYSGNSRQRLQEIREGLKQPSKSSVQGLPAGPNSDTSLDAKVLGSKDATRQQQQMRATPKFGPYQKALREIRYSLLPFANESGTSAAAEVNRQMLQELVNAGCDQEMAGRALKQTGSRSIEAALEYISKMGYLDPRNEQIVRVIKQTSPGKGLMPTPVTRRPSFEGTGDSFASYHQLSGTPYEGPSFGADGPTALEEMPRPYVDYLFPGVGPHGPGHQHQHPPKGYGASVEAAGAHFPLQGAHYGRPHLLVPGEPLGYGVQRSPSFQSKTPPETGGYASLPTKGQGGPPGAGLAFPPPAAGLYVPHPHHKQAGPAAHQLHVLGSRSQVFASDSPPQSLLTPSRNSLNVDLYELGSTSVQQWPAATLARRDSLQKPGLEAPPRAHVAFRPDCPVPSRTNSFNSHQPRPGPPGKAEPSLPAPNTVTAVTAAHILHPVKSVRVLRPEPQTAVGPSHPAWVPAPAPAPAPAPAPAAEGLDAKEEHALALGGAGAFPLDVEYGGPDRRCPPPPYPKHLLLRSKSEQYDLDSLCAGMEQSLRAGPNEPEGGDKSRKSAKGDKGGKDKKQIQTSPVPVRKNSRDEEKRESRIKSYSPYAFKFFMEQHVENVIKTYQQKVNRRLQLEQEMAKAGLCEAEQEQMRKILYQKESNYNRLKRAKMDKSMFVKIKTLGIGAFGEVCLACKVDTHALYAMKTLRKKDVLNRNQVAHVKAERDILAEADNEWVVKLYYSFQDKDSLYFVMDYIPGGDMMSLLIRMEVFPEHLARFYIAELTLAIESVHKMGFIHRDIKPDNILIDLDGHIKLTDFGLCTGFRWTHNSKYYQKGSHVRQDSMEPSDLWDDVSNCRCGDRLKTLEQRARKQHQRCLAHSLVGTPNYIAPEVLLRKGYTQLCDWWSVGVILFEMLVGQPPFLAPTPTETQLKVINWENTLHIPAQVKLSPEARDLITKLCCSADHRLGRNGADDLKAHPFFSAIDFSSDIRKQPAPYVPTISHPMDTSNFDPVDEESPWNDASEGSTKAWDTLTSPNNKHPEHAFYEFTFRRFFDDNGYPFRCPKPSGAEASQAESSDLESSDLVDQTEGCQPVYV

panel of 468 kinases [3] = target: T3, panel of 468 kinases (Homo sapiens, UniProt Q00526); conditions: CDK3; 1 μM; read-out: % control
T3 construct: purchased KINOMEscan (ScanMAX) service

panel of 468 kinases [4] = target: T4, panel of 468 kinases (Homo sapiens, UniProt Q9UM73); conditions: ALK; 1 μM; read-out: % control
T4 construct: purchased KINOMEscan (ScanMAX) service

panel of 468 kinases [5] = target: T5, panel of 468 kinases (Homo sapiens, UniProt P28482); conditions: ERK2; 1 μM; read-out: % control
T5 construct: purchased KINOMEscan (ScanMAX) service

panel of 468 kinases [6] = target: T6, panel of 468 kinases (Homo sapiens, UniProt O43683); conditions: BUB1; 1 μM; read-out: % control
T6 construct: purchased KINOMEscan (ScanMAX) service

panel of 468 kinases [7] = target: T7, panel of 468 kinases (Homo sapiens, UniProt Q00536); conditions: PCTK1; 1 μM; read-out: % control
T7 construct: purchased KINOMEscan (ScanMAX) service
T7 sequence (Q00536 whole entry): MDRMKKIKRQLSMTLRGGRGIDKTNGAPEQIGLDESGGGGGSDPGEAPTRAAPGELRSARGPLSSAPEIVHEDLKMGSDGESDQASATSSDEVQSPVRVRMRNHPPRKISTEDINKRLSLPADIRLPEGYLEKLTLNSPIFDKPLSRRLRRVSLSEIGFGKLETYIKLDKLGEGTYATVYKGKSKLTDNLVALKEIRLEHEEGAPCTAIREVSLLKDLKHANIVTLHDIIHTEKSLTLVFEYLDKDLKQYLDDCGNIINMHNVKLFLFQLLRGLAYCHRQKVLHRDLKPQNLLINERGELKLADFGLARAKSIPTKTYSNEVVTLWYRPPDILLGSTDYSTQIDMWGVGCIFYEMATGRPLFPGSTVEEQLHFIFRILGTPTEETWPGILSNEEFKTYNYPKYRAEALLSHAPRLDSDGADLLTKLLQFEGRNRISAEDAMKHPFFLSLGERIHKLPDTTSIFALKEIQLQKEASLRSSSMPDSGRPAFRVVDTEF

T3 sequence (Q00526 whole entry): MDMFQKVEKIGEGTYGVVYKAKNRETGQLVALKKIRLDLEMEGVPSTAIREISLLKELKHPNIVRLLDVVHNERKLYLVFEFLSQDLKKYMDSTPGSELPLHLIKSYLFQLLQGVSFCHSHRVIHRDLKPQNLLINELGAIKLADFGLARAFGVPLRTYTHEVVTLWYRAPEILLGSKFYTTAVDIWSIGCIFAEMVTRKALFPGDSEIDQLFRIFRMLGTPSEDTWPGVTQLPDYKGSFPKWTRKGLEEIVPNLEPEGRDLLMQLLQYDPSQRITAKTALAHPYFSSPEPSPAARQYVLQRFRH
T5 sequence (P28482 whole entry): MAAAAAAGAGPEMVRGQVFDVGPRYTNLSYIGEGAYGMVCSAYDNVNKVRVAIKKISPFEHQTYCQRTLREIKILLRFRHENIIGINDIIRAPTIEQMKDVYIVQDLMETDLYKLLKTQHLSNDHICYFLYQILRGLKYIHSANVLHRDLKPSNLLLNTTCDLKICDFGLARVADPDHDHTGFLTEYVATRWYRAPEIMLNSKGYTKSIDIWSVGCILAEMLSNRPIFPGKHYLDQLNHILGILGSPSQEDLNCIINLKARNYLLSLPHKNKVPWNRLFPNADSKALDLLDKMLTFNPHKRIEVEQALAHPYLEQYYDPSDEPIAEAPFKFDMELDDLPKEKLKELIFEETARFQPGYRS
T6 sequence (O43683 whole entry): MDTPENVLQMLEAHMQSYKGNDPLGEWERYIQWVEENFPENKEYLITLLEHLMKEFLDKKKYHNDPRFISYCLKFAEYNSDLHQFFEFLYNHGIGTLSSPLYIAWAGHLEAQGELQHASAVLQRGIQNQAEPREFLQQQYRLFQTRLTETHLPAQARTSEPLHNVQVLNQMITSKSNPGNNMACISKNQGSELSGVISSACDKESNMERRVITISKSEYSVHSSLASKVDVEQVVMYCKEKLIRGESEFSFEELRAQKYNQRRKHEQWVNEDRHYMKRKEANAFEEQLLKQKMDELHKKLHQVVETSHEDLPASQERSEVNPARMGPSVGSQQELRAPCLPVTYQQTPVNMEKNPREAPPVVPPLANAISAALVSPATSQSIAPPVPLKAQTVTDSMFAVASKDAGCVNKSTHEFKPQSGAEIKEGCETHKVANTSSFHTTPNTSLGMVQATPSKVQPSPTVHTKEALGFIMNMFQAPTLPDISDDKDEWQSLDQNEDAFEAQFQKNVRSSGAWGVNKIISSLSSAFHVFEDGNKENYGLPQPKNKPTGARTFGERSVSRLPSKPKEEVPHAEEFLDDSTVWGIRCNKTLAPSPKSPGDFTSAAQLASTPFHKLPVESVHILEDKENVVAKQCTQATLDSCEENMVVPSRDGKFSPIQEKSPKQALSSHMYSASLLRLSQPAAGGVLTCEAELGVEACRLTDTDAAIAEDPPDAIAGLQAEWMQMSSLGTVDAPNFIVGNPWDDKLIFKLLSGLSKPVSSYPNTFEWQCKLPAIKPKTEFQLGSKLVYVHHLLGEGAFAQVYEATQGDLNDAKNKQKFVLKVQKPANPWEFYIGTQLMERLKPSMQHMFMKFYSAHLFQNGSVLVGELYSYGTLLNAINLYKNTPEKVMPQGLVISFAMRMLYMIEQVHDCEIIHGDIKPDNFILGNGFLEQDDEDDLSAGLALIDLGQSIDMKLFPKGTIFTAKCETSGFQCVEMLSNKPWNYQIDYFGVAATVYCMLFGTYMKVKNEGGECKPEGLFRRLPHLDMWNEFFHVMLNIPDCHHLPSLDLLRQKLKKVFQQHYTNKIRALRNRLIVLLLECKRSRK
T4 sequence (Q9UM73 19-1620): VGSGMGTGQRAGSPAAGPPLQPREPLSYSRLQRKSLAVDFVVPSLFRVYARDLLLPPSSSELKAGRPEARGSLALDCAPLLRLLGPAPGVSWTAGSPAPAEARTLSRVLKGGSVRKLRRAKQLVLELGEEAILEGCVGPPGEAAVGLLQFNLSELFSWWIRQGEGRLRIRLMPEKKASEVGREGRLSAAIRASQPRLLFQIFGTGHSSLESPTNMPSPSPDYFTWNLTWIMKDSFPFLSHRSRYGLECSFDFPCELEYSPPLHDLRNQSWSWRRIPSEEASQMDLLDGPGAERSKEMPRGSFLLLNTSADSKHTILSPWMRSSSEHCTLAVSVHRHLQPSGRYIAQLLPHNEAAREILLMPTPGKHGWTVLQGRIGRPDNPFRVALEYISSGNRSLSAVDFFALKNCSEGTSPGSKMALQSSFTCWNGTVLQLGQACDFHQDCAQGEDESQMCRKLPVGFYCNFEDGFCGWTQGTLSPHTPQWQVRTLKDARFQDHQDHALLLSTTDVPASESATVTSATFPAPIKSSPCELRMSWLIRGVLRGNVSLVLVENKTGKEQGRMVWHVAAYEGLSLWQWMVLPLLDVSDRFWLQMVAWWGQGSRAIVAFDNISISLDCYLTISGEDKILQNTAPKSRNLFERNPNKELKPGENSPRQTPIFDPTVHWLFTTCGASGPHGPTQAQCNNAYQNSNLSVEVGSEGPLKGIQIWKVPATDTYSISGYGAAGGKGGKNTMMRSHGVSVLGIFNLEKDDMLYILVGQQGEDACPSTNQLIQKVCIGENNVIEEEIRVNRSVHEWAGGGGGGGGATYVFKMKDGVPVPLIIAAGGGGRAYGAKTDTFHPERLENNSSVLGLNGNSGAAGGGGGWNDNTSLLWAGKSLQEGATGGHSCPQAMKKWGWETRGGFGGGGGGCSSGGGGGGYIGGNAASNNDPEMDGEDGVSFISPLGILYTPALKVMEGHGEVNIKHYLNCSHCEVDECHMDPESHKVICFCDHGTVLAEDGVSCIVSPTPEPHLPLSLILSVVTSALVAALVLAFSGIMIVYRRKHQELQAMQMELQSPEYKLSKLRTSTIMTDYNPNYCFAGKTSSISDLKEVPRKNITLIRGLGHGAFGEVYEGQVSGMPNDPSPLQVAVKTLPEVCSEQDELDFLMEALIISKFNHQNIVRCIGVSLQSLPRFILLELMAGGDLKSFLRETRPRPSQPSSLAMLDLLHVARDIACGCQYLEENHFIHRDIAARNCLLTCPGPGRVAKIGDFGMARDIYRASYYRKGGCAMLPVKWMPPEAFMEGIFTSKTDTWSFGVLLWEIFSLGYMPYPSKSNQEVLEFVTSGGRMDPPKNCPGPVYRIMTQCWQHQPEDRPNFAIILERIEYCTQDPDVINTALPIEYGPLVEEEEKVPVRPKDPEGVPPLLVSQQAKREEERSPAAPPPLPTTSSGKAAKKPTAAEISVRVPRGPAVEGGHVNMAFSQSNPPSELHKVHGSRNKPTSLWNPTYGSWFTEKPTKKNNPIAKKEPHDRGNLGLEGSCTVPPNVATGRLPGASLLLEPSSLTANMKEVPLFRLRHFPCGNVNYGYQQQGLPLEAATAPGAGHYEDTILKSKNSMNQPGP

Row | SMILES | remaining binding at 1 µM (panel of 468 kinases [1]) [%] | remaining binding at 1 µM (panel of 468 kinases [2]) [%] | remaining binding at 1 µM (panel of 468 kinases [3]) [%] | remaining binding at 1 µM (panel of 468 kinases [4]) [%] | remaining binding at 1 µM (panel of 468 kinases [5]) [%] | remaining binding at 1 µM (panel of 468 kinases [6]) [%] | remaining binding at 1 µM (panel of 468 kinases [7]) [%]
1 | CNc1nc(Nc2ccc(S(=O)(=O)N3CCC(N4CCOCC4)CC3)cc2OC)nc2[nH]cc(Cl)c12 [Compound 12, 5-chloro-N2-(2-methoxy-4-((4-morpholinopiperidin-1-yl)sulfonyl)phenyl)-N4-methyl-7H-pyrrolo[2,3-d]pyrimidine-2,4-diamine] | 92 | 100 | 86 | 3.4 | 100 | 60 | 64
2 | CNc1nc(Nc2ccc(C(=O)N3CCC(N4CCOCC4)CC3)c3c2OCO3)nc2[nH]cc(Cl)c12 [Compound 75, (7-((5-chloro-4-(methylamino)-7H-pyrrolo[2,3-d]pyrimidin-2-yl)amino)benzo[d][1,3]dioxol-4-yl)(4-morpholinopiperidin-1-yl)methanone] | 89 | 90 | 98 | 1.9 | 100 | 49 | 60
3 | CNc1nc(Nc2ccc(P3(=O)CCN(C4CCOCC4)CC3)cc2OC)nc2[nH]cc(Cl)c12 [Compound 77, 4-(4-((5-chloro-4-(methylamino)-7H-pyrrolo[2,3-d]pyrimidin-2-yl)amino)-3-methoxyphenyl)-1-(tetrahydro-2H-pyran-4-yl)-1,4-azaphosphinane 4-oxide] | 88 | 93 | 95 | 2 | 100 | 61 | 84
